Source: patent US20210169080A1, “HETEROCYCLE DERIVATIVES AS PESTICIDES” (Bayer Aktiengesellschaft, priority 2018, published 2021)

What was measured:
[1] = system: Spodoptera frugiperda; assay: Spodoptera frugiperda spray test; format: in vivo; settings: 100 g/ha, sprayed maize leaf discs, after 7 days
Method: (§1) [table] To produce a suitable active compound formulation, 1 part by weight of active compound is dissolved with the specified parts by weight of solvent and made up to the desired concentration with water containing an emulsifier concentration of 1000 ppm. To produce further test concentrations, the formulation is diluted with emulsifier-containing water. Leaf discs of maize (Zea mays) are sprayed with an active compound formulation of the desired concentration and, after drying, populated with caterpillars of the fall armyworm (Spodoptera frugiperda). After 7 days, the efficacy in % is determined. 100% means that all the caterpillars have been killed; 0% means that no caterpillar has been killed.

[2] = system: Phaedon cochleariae; assay: Phaedon cochleariae spray test; format: in vivo; settings: 100 g/ha, sprayed Chinese cabbage leaf discs, after 7 days
Method: as §1, with “water. Discs” for “water. Leaf discs”, “of Chinese cabbage leaves (Brassica pekinensis)” for “of maize (Zea mays)”, “with larvae” for “with caterpillars”, “the mustard beetle (Phaedon cochleariae).” for “the fall armyworm (Spodoptera frugiperda).”, “the beetle larvae” for “the caterpillars”, “no beetle larvae have” for “no caterpillar has”

[3] = system: Ctenocephalides felis; assay: Ctenocephalides felis oral test; format: in vivo; settings: 100 ppm in citrated cattle blood, adult cat fleas, after 2 days
Method: Solvent: dimethyl sulfoxide To produce a suitable active compound formulation, 10 mg of active compound are mixed with 0.5 ml of dimethyl sulfoxide. Dilution with citrated cattle blood gives the desired concentration. About 20 unfed adult cat fleas (Ctenocephalides felis) are placed into a chamber which is closed at the top and bottom with gauze. A metal cylinder whose bottom end is closed with parafilm is placed onto the chamber. The cylinder contains the blood/active compound formulation, which can be imbibed by the fleas through the parafilm membrane. After 2 days, the kill in % is determined. 100% means that all of the fleas have been killed; 0% means that none of the fleas have been killed.

[4] = system: Boophilus microplus; assay: Boophilus microplus injection test; format: in vivo; settings: 20 μg/animal injected into abdomen of engorged adult female cattle ticks, assessed after 7 days
Method: Solvent: dimethyl sulfoxide To produce a suitable active compound formulation, 10 mg of active compound are mixed with 0.5 ml of solvent and the concentrate is diluted to the desired concentration with solvent. 1 μl of the active compound solution is injected into the abdomen of 5 engorged adult female cattle ticks (Boophilus microplus). The animals are transferred into dishes and kept in a climate-controlled room. The activity is assessed after 7 days by laying of fertile eggs. Eggs which are not visibly fertile are stored in a climate-controlled cabinet until the larvae hatch after about 42 days. An efficacy of 100% means that none of the ticks has laid any fertile eggs; 0% means that all the eggs are fertile.

[5] = log P by reversed-phase HPLC (EEC Directive 79/831 Annex V.A8), acidic method; format: physicochemical; settings: HPLC on reversed-phase C18, acidic range, formic acid in water/acetonitrile; for chromatographic logP: reversed-phase C18 HPLC column
Method: The log P values were determined according to EEC Directive 79/831 Annex V.A8 by HPLC (high-performance liquid chromatography) on a reversed-phase column (C18) using the following methods: ^[a] […] Calibration was carried out using a homologous series of straight-chain alkan-2-ones (having 3 to 16 carbon atoms) with known log P values. The values between successive alkanones are determined by linear regression.

[6] = system: Rhipicephalus sanguineus; assay: Rhipicephalus sanguineus in vitro contact test with adult brown dog ticks; format: in vivo; settings: application rate 5 μg/cm^2 (=500 g ai/ha), after 48 h
Method: For the coating of the test tubes, 9 mg of active compound are first dissolved in 1 ml of acetone p.a. and then diluted to the desired concentration with acetone p.a. 250 μl of the solution are distributed homogeneously on the inner walls and the base of a 25 ml glass tube by turning and rocking on an orbital shaker (rocking rotation at 30 rpm for 2 h). With 900 ppm of active compound solution and internal surface area 44.7 cm^2, given homogeneous distribution, an area-based dose of 5 μg/cm^2 is achieved. After the solvent has evaporated off, the tubes are populated with 5-10 adult dog ticks (Rhipicephalus sanguineus), sealed with a perforated plastic lid and incubated in a horizontal position in the dark at room temperature and ambient humidity. After 48 h, efficacy is determined. To this end, the ticks are knocked to the base of the tube and incubated on a hotplate at 45-50° C. for not more than 5 min. Ticks which remain motionless on the base or move in such an uncoordinated manner that they are unable to deliberately avoid the heat by climbing upwards are considered to be dead or moribund. […] An efficacy of 100% means that all the ticks were dead or moribund. 0% efficacy means that none of the ticks were harmed.

[7] = system: Ctenocephalides felis; assay: Ctenocephalides felis in vitro contact test with adult cat fleas; format: in vivo; settings: application rate 5 μg/cm^2 (=500 g/ha), after 48 h
Method: For the coating of the test tubes, 9 mg of active compound are first dissolved in 1 ml of acetone p.a. and then diluted to the desired concentration with acetone p.a. 250 μl of the solution are distributed homogeneously on the inner walls and the base of a 25 ml glass tube by turning and rocking on an orbital shaker (rocking rotation at 30 rpm for 2 h). With 900 ppm of active compound solution and internal surface area 44.7 cm^2, given homogeneous distribution, an area-based dose of 5 μg/cm^2 is achieved. After the solvent has evaporated off, the tubes are populated with 5-10 adult cat fleas (Ctenocephalides felis), sealed with a perforated plastic lid and incubated in a horizontal position at room temperature and ambient humidity. After 48 h, efficacy is determined. To this end, the tubes are stood upright and the fleas are knocked to the base of the tube. Fleas which remain motionless at the base or move in an uncoordinated manner are considered to be dead or moribund. […] 100% efficacy means that all the fleas were dead or moribund. 0% efficacy means that no fleas were harmed.

[8] = system: Myzus persicae; assay: Myzus persicae oral test; format: in vivo; settings: 4 ppm, oral uptake through parafilm, after 5 days
Method: [table] To produce a suitable active compound formulation, 1 part by weight of active compound is dissolved with the stated parts by weight of solvent and made up to the desired concentration with water. 50 μl of the active compound formulation are transferred into microtitre plates and made up to a final volume of 200 μl with 150 μl of IPL41 insect medium (33%+15% sugar). Subsequently, the plates are sealed with parafilm, which a mixed population of green peach aphids (Myzus persicae) within a second microtitre plate is able to puncture and imbibe the solution. After 5 days, the efficacy in % is determined. 100% means that all the aphids have been killed; 0% means that no aphids have been killed.

[9] = system: Diabrotica balteata; assay: Diabrotica balteata spray test; format: in vivo; settings: 160 μg/cavity, germinated wheat corns infested with beetle larvae, after 7 days
Method: [table] To produce a suitable active compound formulation, 1 part by weight of active compound is dissolved with the specified parts by weight of solvent and made up to the desired concentration with water containing an emulsifier concentration of 1000 ppm. To produce further test concentrations, the formulation is diluted with emulsifier-containing water. Pre-swollen wheat corns (Triticum aestivum) are incubated for one day in a multiwell plate filled with agar and a little water (5 seed corns per cavity). The germinated wheat corns are sprayed with an active compound formulation of the desired concentration. Subsequently, each cavity is infested with 10-20 Diabrotica balteata beetle larvae. After 7 days, the efficacy in % is determined. 100% means that all wheat plants have grown as in the untreated uninfested control; 0% means that no wheat plant has grown.

[10] = system: Myzus persicae; assay: Myzus persicae spray test; format: in vivo; settings: 100 g/ha, sprayed Chinese cabbage leaf discs, after 5 days
Method: as §1, with “Discs” for “Leaf discs”, “Chinese cabbage leaves (Brassica pekinensis) infested by all stages of the green peach aphid (Myzus persicae)” for “maize (Zea mays)”, “concentration.” for “concentration and, after drying, populated with caterpillars of the fall armyworm (Spodoptera frugiperda).”, “5” for “7”, “aphids” for “caterpillars”, “aphids have” for “caterpillar has”

SMILES	chromatographic logP [5]	log P (acidic) [5]	efficacy (caterpillars killed) [1] [%]	efficacy (beetle larvae killed) [2] [%]	efficacy (kill in %) [3] [%]	efficacy (no laying of fertile eggs) [4] [%]	efficacy (ticks dead or moribund) [6] [%]	efficacy (fleas dead or moribund) [7] [%]	efficacy (aphids killed) [8] [%]	efficacy (wheat plants grown as in uninfested control) [9] [%]	efficacy (aphids killed) [10] [%]
CCS(=O)(=O)c1c(-c2nc3cc(SC(F)(F)F)ccc3o2)nc2cc(C3(C#N)CC3)ccn12 [Example 1-3, 1-[3-(Ethylsulfonyl)-2-{5-[(trifluoromethyl)sulfanyl]-1,3-benzoxazol-2-yl}imidazo-[1,2-a]pyridin-7-yl]cyclopropanecarbonitrile]	3.63		100	100	100	90	80	100			
CCS(=O)(=O)c1c(-c2nc3cc(S(=O)(=O)C(F)(F)F)ccc3o2)nc2cc(C3(C#N)CC3)ccn12 [Example 1-1, 1-[3-(Ethylsulfonyl)-2-{5-[(trifluoromethyl)sulfonyl]-1,3-benzoxazol-2-yl}imidazo-[1,2-a]pyridin-7-yl]cyclopropanecarbonitrile]	3.18		100	100	95				100		
CCS(=O)(=O)c1c(-c2nc3cc([S+]([O-])C(F)(F)F)ccc3o2)nc2cc(C3(C#N)CC3)ccn12 (stereo not shown) [Example 1-2, 1-[3-(ethylsulfonyl)-2-{5-[(trifluoromethyl)sulfinyl]-1,3-benzoxazol-2-yl}imidazo[1,2-a]pyridin-7-yl]cyclo-propanecarbonitrile]	2.67		100	100	100				100		100

More lines, main results first:

chromatographic logP [5]	log P (acidic) [5]	SMILES	efficacy (caterpillars killed) [1] [%]	efficacy (beetle larvae killed) [2] [%]	efficacy (kill in %) [3] [%]	efficacy (no laying of fertile eggs) [4] [%]	efficacy (ticks dead or moribund) [6] [%]	efficacy (fleas dead or moribund) [7] [%]	efficacy (aphids killed) [8] [%]	efficacy (wheat plants grown as in uninfested control) [9] [%]	efficacy (aphids killed) [10] [%]
3.22		CCS(=O)(=O)c1c(-c2nc3cc(C(F)(F)F)ccc3o2)nc2cc(C3(C#N)CC3)ccn12 [Example 1-4]	100	100							
3.29		CCS(=O)(=O)c1c(-c2nc3cc(OC(F)(F)F)ccc3o2)nc2cc(C3(C#N)CC3)ccn12 [Example 1-5, 1-[3-Ethylsulfonyl-2-[5-(trifluoromethoxy)-1,3-benzoxazol-2-yl]imidazo[1,2-a]pyridin-7-yl]cyclopropanecarbonitrile]	83							100	
	3.68	CCS(=O)(=O)c1c(-c2nc3cc(C(F)(F)C(F)(F)F)ccc3o2)nc2cc(C3(C#N)CC3)ccn12 [Example 1-6, 1-[3-Ethylsulfonyl-2-[5-(l, 1,2,2,2-pentafluoroethyl)-1,3-benzoxazol-2-yl]imidazo [1,2-a]pyridin-7-yl]cyclopropanecarbonitrile]									
